Data: patent US20090156518A1, “STABLE PHARMACEUTICAL COMPOSITION COMPRISING BETA-LACTAM ANTIBIOTIC AND BUFFER” (priority 2006, published 2009)

Assay: amounts of β-lactam antibiotic, β-lactamase inhibitor (C18 reverse-phase LC, UV-VIS) and aminoglycoside (HPLC-ELSD) in solution over time
Assay type: physicochemical

NCC[C@H](O)C(=O)N[C@@H]1C[C@H](N)[C@@H](O[C@H]2O[C@H](CN)[C@@H](O)[C@H](O)[C@H]2O)[C@H](O)[C@H]1O[C@H]1O[C@H](CO)[C@@H](O)[C@H](N)[C@H]1O.O=S(=O)(O)O.O=S(=O)(O)O [Amikacin sulfate, amikacin sulfate]
amount of component as percentage with respect to the amount at the initial time (Example 5: freeze-dried cefoperazone sodium 4 g, sulbactam sodium 0.5 g, citrate pH 6.75, + amikacin sulfate 500 mg, 7 days 0° C., dissolved in 100 mL water, Time 0 h): 98.98% | amount of component as percentage with respect to the amount at the initial time (Example 5: freeze-dried cefoperazone sodium 4 g, sulbactam sodium 0.5 g, citrate pH 6.75, + amikacin sulfate 500 mg, 7 days 0° C., dissolved in 100 mL water, Time 1 h): 98.73% | amount of component as percentage with respect to the amount at the initial time (Example 5: freeze-dried cefoperazone sodium 4 g, sulbactam sodium 0.5 g, citrate pH 6.75, + amikacin sulfate 500 mg, 7 days 0° C., dissolved in 100 mL water, Time 2 h): 98.52% | amount of component as percentage with respect to the amount at the initial time (Example 5: freeze-dried cefoperazone sodium 4 g, sulbactam sodium 0.5 g, citrate pH 6.75, + amikacin sulfate 500 mg, 7 days 0° C., dissolved in 100 mL water, Time 4 h): 98.41% | amount of component as percentage with respect to the amount at the initial time (Example 5: freeze-dried cefoperazone sodium 4 g, sulbactam sodium 0.5 g, citrate pH 6.75, + amikacin sulfate 500 mg, 7 days 0° C., dissolved in 100 mL water, Time 6 h): 98.76% | amount of component as percentage with respect to the amount at the initial time (Example 17: freeze-dried cefoperazone sodium 4 g, sulbactam sodium 1 g, citrate pH 6.75, 7 days 0° C., in 100 mL water, 10 mL + amikacin sulfate 40 mg, room temperature, Time 0 h): 99.91% | amount of component as percentage with respect to the amount at the initial time (Example 17: freeze-dried cefoperazone sodium 4 g, sulbactam sodium 1 g, citrate pH 6.75, 7 days 0° C., in 100 mL water, 10 mL + amikacin sulfate 40 mg, room temperature, Time 1 h): 99.50% | amount of component as percentage with respect to the amount at the initial time (Example 17: freeze-dried cefoperazone sodium 4 g, sulbactam sodium 1 g, citrate pH 6.75, 7 days 0° C., in 100 mL water, 10 mL + amikacin sulfate 40 mg, room temperature, Time 2 h): 98.88% | amount of component as percentage with respect to the amount at the initial time (Example 17: freeze-dried cefoperazone sodium 4 g, sulbactam sodium 1 g, citrate pH 6.75, 7 days 0° C., in 100 mL water, 10 mL + amikacin sulfate 40 mg, room temperature, Time 4 h): 99.45% | amount of component as percentage with respect to the amount at the initial time (Example 17: freeze-dried cefoperazone sodium 4 g, sulbactam sodium 1 g, citrate pH 6.75, 7 days 0° C., in 100 mL water, 10 mL + amikacin sulfate 40 mg, room temperature, Time 6 h): 98.56% | amount of component as percentage with respect to the amount at the initial time (Example 17: freeze-dried cefoperazone sodium 4 g, sulbactam sodium 1 g, citrate pH 6.75, 7 days 0° C., in 100 mL water, 10 mL + amikacin sulfate 40 mg, room temperature, Time 8 h): 99.36%
